{"source": "a melting point compilation (Tetko et al.; mined from patent text by program, amines drawn as free bases though some values may be those of a salt)"}
{"units": {"melting point": "°C"}}
{"compound": "COc1ccc(CN(C(=O)C2CCCc3ccc(OC)cc32)c2ccc(C(C)C)cc2)cc1", "note": "(centres undefined)", "melting point": "83 to 85"}
{"compound": "CCOC(=O)c1cnc2c(c1Cl)CCCCCC2", "melting point": "33 to 36"}
{"compound": "CCOCn1c(N(C(C)=O)c2cc(C)cc(C)c2)c(CC)c(=O)[nH]c1=O", "melting point": "182 to 183"}
{"compound": "CC1(c2ccccc2)SCN=C1COc1ccc(C#N)cn1", "note": "(centres undefined)", "melting point": "124 to 125"}
{"compound": "CCCCCCCCc1ccc(OCC(=O)Cn2ncc3ccccc32)cc1", "melting point": "66 to 67"}
{"compound": "CCN1CCCC1CNC(=O)c1c(O)ccc(Br)c1O", "note": "(centres undefined)", "melting point": "166 to 168"}
{"compound": "N#Cc1cc(N)n(-c2c(Cl)cc(C(F)(F)F)cc2Cl)c1", "melting point": 176}
{"compound": "CCCN(CCCCc1c[nH]c2ccc(F)cc12)C1COc2c(ccc3ncccc23)C1", "note": "(centres undefined)", "melting point": 164}
{"compound": "COCCOc1ccc(/C=C(\\C)C(=O)NS(=O)(=O)c2cccc(Cl)c2)c(Oc2ncc(C(F)(F)F)cc2Cl)c1", "melting point": "89 to 92"}
{"compound": "COc1ccccc1-c1c(C)c(C)c2cnc(Nc3ccc(N4CCOCC4)cc3)nn12", "melting point": "169 to 172"}
{"compound": "Nc1cc(NC(=O)CCCCl)c(Cl)cc1Cl", "melting point": "125 to 128"}
{"compound": "CC(c1oc2ccccc2c(=O)c1-c1cccc(F)c1)n1nc(-c2cccc(C(=O)N3CCOCC3)c2)c2c(N)ncnc21", "note": "(centres undefined)", "melting point": "104 to 106"}
{"compound": "CC(C)(C)c1cc(C(c2ccccc2)N(O)C(N)=O)cc(C(C)(C)C)c1O", "note": "(centres undefined)", "melting point": "188 to 189"}
{"compound": "Nc1nc(F)nc2c1ncn2C1OC(COCc2ccccc2)C(OCc2ccccc2)C1OCc1ccccc1", "note": "(centres undefined)", "melting point": "157 to 159"}
{"compound": "CCCCSc1nc(N)c(C(=O)c2ccccc2)s1", "melting point": "91 to 94"}
{"compound": "COc1ccc(C=CCN2CCc3nc(N)sc3CC2)cc1", "melting point": "155 to 160"}
{"compound": "O=C(Nc1ccc2[nH]c(C(F)(F)F)nc2c1)C(=O)N1CCC(Cc2ccccc2)CC1", "melting point": 142}
{"compound": "CN(CCN1C(=O)c2ccccc2S1(=O)=O)C1COc2ccccc2O1", "note": "(centres undefined)", "melting point": 181}
{"compound": "CCOc1ccc2ccccc2c1-c1c(OCC)ccc2ccccc12", "melting point": 92}
{"compound": "C[C@H]1C[C@@](O)(c2ccc(S(=O)(=O)c3ccc4c(c3)CCC(=O)N4C)s2)CCO1", "melting point": "80 to 82"}
{"compound": "CN(Cc1cc(C(F)(F)F)cc(C(F)(F)F)c1)C(=O)c1c(-c2ccc(F)cc2)c2c(c(=O)n1C)CCCN2", "melting point": "226 to 228"}
{"compound": "COc1ccc2c3c1OC1C(=O)CC(C)C4(OC)C(C2)N(C)CCC314", "note": "(centres undefined)", "melting point": "204 to 205"}
{"compound": "Cc1ccc(N2C=NC3CCCCC3C2=O)cc1", "note": "(centres undefined)", "melting point": "79 to 82"}
{"compound": "CCCc1c2c(c(O)c3c(=O)cc(C(=O)O)oc13)CCCC2", "melting point": "260 to 262"}
{"compound": "O=C(CN1CCN(c2ccccc2)CC1)N1CCC(CNCc2ccco2)(c2cccc(C(F)(F)F)c2)CC1", "melting point": 119}
{"compound": "COc1ccc2c(c1)C(O)CC21CCN(CCCC(=O)c2ccc(F)cc2)C1", "note": "(centres undefined)", "melting point": "113 to 115"}
{"compound": "Cc1nc(NC(=N)N)sc1C(=O)Nc1cccc(OCC(=O)O)c1", "melting point": 284}
{"compound": "CCc1ccc(N2CCOCC2)c(NC(C)=O)c1", "melting point": 82}
{"compound": "COC(=O)CCCOc1ccc(CNC(=O)C2Cc3ccccc3N2S(=O)(=O)c2ccc(-c3cccc(C(F)(F)F)c3)cc2)cc1", "note": "(centres undefined)", "melting point": 50}
{"compound": "O=C(O)CCC(=O)OCc1ccc(-c2nn(-c3ccc(Br)cc3)c3ccccc23)o1", "melting point": "111 to 113"}
{"compound": "Brc1cccc(C#Cc2ccncc2)c1", "melting point": "140 to 142"}
{"compound": "CC(C)C(NC(=O)OC(C)(C)C)C(=O)OCN1C(=O)CCC(N2C(=O)c3ccccc3C2=O)C1=O", "note": "(centres undefined)", "melting point": "82 to 85"}
{"compound": "CCOP(=O)(Cc1c2ccccc2cc2ccccc12)OCC", "melting point": 104}
{"compound": "c1cc(Cn2ncc3c(N4CCNCC4)ncnc32)ccn1", "melting point": 121}
{"compound": "CCC(CC)c1ccc(Cl)c2nc3n(c12)CCCCN3c1ccc(Cl)cc1Cl", "melting point": "160 to 162"}
{"compound": "O=C(O)CN1C(=O)C(=CC=Cc2ccccc2-c2ccccc2)SC1=S", "melting point": "246 to 249"}
{"compound": "COc1ccc2c(c1)Sc1cc([N+](=O)[O-])ccc1N2C(C)=O", "melting point": "156 to 157"}
{"compound": "C=CCC(N)(c1ccccc1)C(O)c1ccccc1", "note": "(centres undefined)", "melting point": "85 to 86"}
{"compound": "CS(=O)(=O)N(Cc1cccnc1)c1cccc(C(F)(F)F)c1", "melting point": "106 to 110"}
{"compound": "CC(=O)Nc1ccc(OCC2CCN(CC(O)COc3cccc4c3CCN4C=O)CC2)cc1", "note": "(centres undefined)", "melting point": "177 to 179"}
{"compound": "CC(C)C(NC(=O)NCc1cccnc1)C(=O)NC(Cc1ccccc1)C(O)C(Cc1ccccc1)NC(=O)C(NC(=O)NCc1cccnc1)C(C)C", "note": "(centres undefined)", "melting point": "238 to 239"}
{"compound": "CC(=O)SCSc1cn(C(c2ccccc2)(c2ccccc2)c2ccccc2)nn1", "melting point": "115 to 116"}
{"compound": "O=C1NC(=O)C(Nc2ccc(CCNCC(O)COc3ccc(-c4ccccc4)cc3)cc2)S1", "note": "(centres undefined)", "melting point": "70 to 71"}
{"compound": "CCCC(CCC)(CC(=O)Nc1cccc(OCc2ccc3ccc(F)cc3n2)c1)C(=O)O", "melting point": "155 to 156"}
{"compound": "NC(=O)c1c(-c2cccc(F)c2)c(Br)n2c1CNCC2", "melting point": "216 to 218"}
{"compound": "CC(C)(C)c1cc(-c2nn(C(=O)c3cccs3)c3ncccc23)cc(C(C)(C)C)c1O", "melting point": "240 to 242"}
{"compound": "OCCc1ccc(OCc2coc(/C=C/c3ccccc3)n2)cc1", "melting point": "123 to 124"}
{"compound": "O=C(O)c1ccc([N+](=O)[O-])cc1-c1ccccc1", "melting point": "174 to 176"}
{"compound": "OCc1c[nH]c(-c2ccc(O)cc2)n1", "melting point": "212 to 214"}
{"compound": "O=Cc1ccc(COC(=O)Nc2cccc3ccccc23)cc1", "melting point": "153 to 154"}
{"compound": "CC(C)Cc1ccc2nc(Cl)c(S(N)(=O)=O)n2n1", "melting point": "168 to 170"}
{"compound": "Fc1cccc2c(OCCc3ccc(Oc4ccc(C(F)(F)F)cn4)cc3)ncnc12", "melting point": "116 to 118"}
{"compound": "COc1ccc2c(c1)CCC1CCN(C)C(=O)C(CC3(C)OCCO3)=C21", "note": "(centres undefined)", "melting point": "112 to 115"}
{"compound": "COC(=O)c1cccc2c1c1c(n2Cc2ccccc2)CN(Cc2ccccc2)CC1=O", "melting point": "198 to 199"}
{"compound": "COc1cn(-c2ccc(-n3cc(F)c(F)c3)cc2F)nc(-c2ccnn2-c2ccccc2)c1=O", "melting point": "212 to 214"}
{"compound": "CCCC[C@H](NC(=O)[C@H](CC(C)C)NC(=O)c1c(F)ccc(F)c1F)C(=O)CSCc1ccco1", "melting point": "116 to 117"}
{"compound": "C=CCc1cc(O)c(CC=C)c(C=O)c1O", "melting point": 102}
{"compound": "CCOCc1nc2c(N)nc(C)c(C)c2n1CCCN", "melting point": 127}
{"compound": "CCOc1c(-c2ccc(O)c(OC)c2)oc2cc(OC)cc(O)c2c1=O", "melting point": "168 to 169"}
{"compound": "CC1(C)C(C=CC(=O)Oc2ccccc2)C1C(=O)O", "note": "(centres undefined)", "melting point": 57}
{"compound": "CCC(=O)Nc1cccc2c1CCC(NC(=O)CC)C2", "note": "(centres undefined)", "melting point": 270}
{"compound": "O=C1Nc2ccc(Br)cc2C12CCNCC2", "melting point": "256 to 258"}
{"compound": "CNc1nc(-c2cccc(C(=O)Nc3ccccc3)c2)c2cc(OC)c(OC)cc2n1", "melting point": "242 to 244"}
{"compound": "O=C(O)C1=Cc2cc(Cl)c(Oc3cccnc3Cl)cc2OC1C(F)(F)F", "note": "(centres undefined)", "melting point": "213 to 216"}
{"compound": "CC(=O)Nc1ccc(OCCCN2C(=O)c3ccccc3C2=O)cc1", "melting point": "154 to 156"}
{"compound": "CC(C)c1ccc(-c2cc(C(=O)O)c(-c3cccc(C(=O)O)c3)o2)cc1", "melting point": "236 to 239"}
{"compound": "Cc1cc(CC(O)CN2C(=O)CCC2=O)cc(C(C)(C)C)c1O", "note": "(centres undefined)", "melting point": 218}
{"compound": "CCOC(=O)c1cc2cc(N(C)C)ccc2s1", "melting point": "95 to 96"}
{"compound": "CCOc1ccc2c(c1)C(C)(c1cc(N)ccc1Cl)C(=O)N2", "note": "(centres undefined)", "melting point": 166}
{"compound": "Cc1ccc(C)n1-c1ccc(C=CC(=O)O)cc1", "melting point": "184 to 185"}
{"compound": "Clc1ccc(C2Nc3ccccc3S2)cc1", "note": "(centres undefined)", "melting point": "85 to 87"}
{"compound": "CCOC(=O)c1cnc(-c2cc3cccc(N(C)S(=O)(=O)c4cccs4)c3n2COC)s1", "melting point": "142 to 143"}
{"compound": "N#Cc1cccc(COc2ccc3ccccc3c2)c1", "melting point": "60 to 61"}
{"compound": "O=[N+]([O-])c1ccc2nc(N3CCNCC3)cc(Cl)c2c1", "melting point": "175 to 177"}
{"compound": "O=C1CCC(N2Cc3c(OCc4ccc(Cn5cnc(C(F)(F)F)c5)cc4)cccc3C2=O)C(=O)N1", "note": "(centres undefined)", "melting point": "148 to 150"}
{"compound": "CC(C)Cn1c(CNC(=O)C2CC2)nc2c(N)nc3ccccc3c21", "melting point": "215 to 216"}
{"compound": "O=C(CN1CCC(Cc2ccc(F)cc2)CC1)Nc1ccc([N+](=O)[O-])cc1", "melting point": "120 to 123"}
{"compound": "O=c1c2cc3ccccc3cc2oc2cc(OCC3CO3)cc(OCC3CO3)c12", "note": "(centres undefined)", "melting point": "181 to 182"}
{"compound": "CN1OC(COc2ccccc2)CC1(Cn1ccnc1)c1ccc2ccccc2c1", "note": "(centres undefined)", "melting point": "176 to 178"}
{"compound": "CC(O)(CCBr)c1ccc(-c2ccc(F)cc2)cc1", "note": "(centres undefined)", "melting point": "72 to 74"}
{"compound": "NC(=S)NC1CCCc2sccc21", "note": "(centres undefined)", "melting point": "129 to 131"}
{"compound": "CCCCCCCCC1N(C)c2cccc3cccc(c23)N1C", "melting point": "62 to 63"}
{"compound": "Cc1cc(C)c2nc(NC3CCN(CCCO)CC3)n(Cc3nc(C)ccc3O)c2c1", "melting point": 172}
{"compound": "[N-]=[N+]=Nc1nc(C(F)(F)F)nc(-c2ccccc2)c1-c1ccccc1", "melting point": "126 to 128"}
{"compound": "Cc1ccc(C2CCCCC2)n1CC[C@H]1C[C@H](O)CC(=O)O1", "note": "(relative stereo)", "melting point": "129 to 130"}
{"compound": "CC(C)(C)CN1C(=O)C(=O)N(c2ccc(F)cc2F)C1=S", "melting point": "156 to 157"}
{"compound": "CN(CCCNC(=O)c1c2ccccc2nc2ccccc12)CCCNC(=O)c1c2ccccc2nc2c1[nH]c1ccccc12", "melting point": "108 to 110"}
{"compound": "OC(CNCC(O)C1CCc2ccccc2O1)C1CCc2ccccc2O1", "note": "(centres undefined)", "melting point": 131}
{"compound": "Cc1c(C)c2c(c3c1NCC3)CC(C)(CI)O2", "note": "(centres undefined)", "melting point": "97 to 98"}
{"compound": "CC1=CSC(O)C(=O)N1", "note": "(centres undefined)", "melting point": "166 to 168"}
{"compound": "OCc1ccc(N(c2ccccc2)c2ccccc2)cc1", "melting point": "104 to 105"}
{"compound": "CCCC(=O)Nc1ccc2[nH]c(C(=O)O)cc2c1", "melting point": 210}
{"compound": "N#CC(Cc1c[nH]cn1)(c1ccccc1)c1ccc(Cl)cc1", "note": "(centres undefined)", "melting point": "135 to 136"}
{"compound": "Oc1ccc(Oc2ccc(OC(F)(F)F)cc2)cc1", "melting point": "44 to 46"}
{"compound": "CCCCNC(=O)[C@H](C)C[C@H](O)[C@H](CC1CCCCC1)NC(=O)[C@H](Cc1cscn1)NC(=O)[C@@H](CC(=O)N1CCCCC1)Cc1ccc(OC)cc1", "melting point": "120 to 122"}
{"compound": "CC(=O)Nc1cc(N2CCCC2)c2c(Cl)ccc3c2c1C(=O)N(O)C3=O", "melting point": "152 to 154"}
{"compound": "NC(=O)NCCSCC(=O)O", "melting point": 135}
{"compound": "CN1C(=O)Cc2cc(F)ccc21", "melting point": "128 to 130"}
{"compound": "CC(C)Oc1ccc(-n2c(C(=O)O)c(Cl)c3cc(Oc4ccc(C(F)(F)F)cc4)ccc32)cc1", "melting point": "148 to 150"}
